The source of these data is patent publication US20050085447A1, “Pyrido[3,4-d]pyrimidine derivatives as matrix metalloproteinase-13 inhibitors” (Warner-Lambert Company LLC, priority 2003, published 2005).

Holding throughout (type): biochemical
One experiment has as its target MMP-13 catalytic domain (Homo sapiens, UniProt P45452). Description: Thiopeptolide substrate hydrolysis inhibition assay, MMP-13 catalytic domain. The source says:
The methods described below for the inhibition of MMP-13 may also be adapted and used to determine the ability of the compounds of Formula I to inhibit other matrix metalloproteases such as MMP-1, MMP-2, MMP-3, MMP-7, MMP-8, MMP-9, MMP-12, MMP-14, MMP-17, and the like.
Thiopeptolide substrates show virtually no decomposition or hydrolysis at or below neutral pH in the absence of a matrix metalloproteinase enzyme. A typical thiopeptolide substrate commonly utilized for assays is Ac-Pro-Leu-Gly-thioester-Leu-Leu-Gly-OEt. A 100 μL assay mixture will contain 50 mM of N-2-hydroxyethylpiperazine-N′-2-ethanesulfonic acid buffer (“HEPES,” pH 7.0), 10 mM CaCl2, 100 μM thiopeptolide substrate, and 1 mM 5,5′-dithio-bis-(2-nitro-benzoic acid) (DTNB). […] Assays are carried out with and without matrix metalloproteinase inhibitor compounds, and the amount of hydrolysis is compared for a determination of inhibitory activity of the test compounds.

The next experiment has as its target T1, MMP-1 full-length (Homo sapiens, UniProt P03956).
T1 construct: have also been assayed with MMP-1 full-length
T1 sequence (P03956 100-469): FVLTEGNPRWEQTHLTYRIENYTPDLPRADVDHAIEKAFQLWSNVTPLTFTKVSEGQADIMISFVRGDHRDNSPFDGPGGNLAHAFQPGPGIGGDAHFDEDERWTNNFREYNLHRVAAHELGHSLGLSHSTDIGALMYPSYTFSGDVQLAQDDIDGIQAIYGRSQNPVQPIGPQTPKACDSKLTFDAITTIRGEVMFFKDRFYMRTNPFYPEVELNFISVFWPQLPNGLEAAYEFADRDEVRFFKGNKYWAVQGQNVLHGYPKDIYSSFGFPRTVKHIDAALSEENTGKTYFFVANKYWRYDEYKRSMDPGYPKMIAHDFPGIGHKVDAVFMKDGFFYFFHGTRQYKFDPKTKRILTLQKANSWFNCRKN
Description: Thiopeptolide substrate hydrolysis inhibition assay, MMP-1 full-length. Particulars: full-length enzyme; read-out: MMP-1FL IC50. The text has this: (§1) The assay methods of Biological Examples 1-4 measure the amount by which a test compound reduces the hydrolysis of a thiopeptolide substrate catalyzed by a matrix metalloproteinase enzyme or catalytic domain thereof. It has been shown previously by Ye Qi-Zhuang, Hupe D., and Johnson L. (Current Medicinal Chemistry, 1996;3:407-418) that inhibitor activity against a catalytic domain of an MMP is predictive of the inhibitor activity against the respective full-length MMP enzyme. The methods described below for the inhibition of MMP-13 may also be adapted and used to determine the ability of the compounds of Formula I to inhibit other matrix metalloproteases such as MMP-1, MMP-2, MMP-3, MMP-7, MMP-8, MMP-9, MMP-12, MMP-14, MMP-17, and the like.
(§2) Thiopeptolide substrates show virtually no decomposition or hydrolysis at or below neutral pH in the absence of a matrix metalloproteinase enzyme. A typical thiopeptolide substrate commonly utilized for assays is Ac-Pro-Leu-Gly-thioester-Leu-Leu-Gly-OEt. A 100 μL assay mixture will contain 50 mM of N-2-hydroxyethylpiperazine-N′-2-ethanesulfonic acid buffer (“HEPES,” pH 7.0), 10 mM CaCl2, 100 μM thiopeptolide substrate, and 1 mM 5,5′-dithio-bis-(2-nitro-benzoic acid) (DTNB). […] The change in absorbance at 405 nm is monitored on a Thermo Max microplate reader (molecular Devices, Menlo Park, Calif.) at room temperature (22° C.). The calculation of the amount of hydrolysis of the thiopeptolide substrate is based on E412=13600 M^−1 cm^−1 for the DTNB-derived product 3-carboxy-4-nitrothiophenoxide. Assays are carried out with and without matrix metalloproteinase inhibitor compounds, and the amount of hydrolysis is compared for a determination of inhibitory activity of the test compounds.
(§3) Test compounds were evaluated at various concentrations in order to determine their respective IC50 values, the micromolar concentration of compound required to cause a 50% inhibition of catalytic activity of the respective enzyme.
(§4) Some representative compounds of Formula I have been evaluated for their ability to inhibit MMP-13, MMP-1FL, MMP-3CD, MMP-7FL, MMP-8FL, MMP-9FL, MMP-12CD, MMP-14CD, and/or MMP-17CD, wherein FL means full-length enzyme and CD means a catalytic domain of the full-length enzyme. Test compounds can be evaluated at various concentrations in order to determine their respective IC50 values, the micromolar concentration of compound required to cause a 50% inhibition of the hydrolytic activity of the respective enzyme.
(§5) Certain compounds of Formula I have also been assayed with MMP-1 full-length, MMP-3 catalytic domain, MMP-7 full-length, MMP-8 full-length, MMP-9 full-length, MMP-12 catalytic domain, MMP-14 catalytic domain, and MMP-17 catalytic domain. […] In Biological Table 2, the compound example numbers for the Compound Examples are indicated in the column labelled “Ex. No.”

In the next experiment the target is T2, MMP-3 catalytic domain (Homo sapiens, UniProt P08254).
T2 construct: MMP-1 full-length, MMP-3 catalytic domain, MMP-7 full-length
T2 sequence (P08254 100-272 limits assumed): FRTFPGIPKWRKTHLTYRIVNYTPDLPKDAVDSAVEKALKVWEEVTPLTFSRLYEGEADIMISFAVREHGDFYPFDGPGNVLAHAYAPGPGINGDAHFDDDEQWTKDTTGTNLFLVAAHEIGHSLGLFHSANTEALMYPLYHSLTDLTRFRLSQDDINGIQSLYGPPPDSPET
The experiment can be described thus: Thiopeptolide substrate hydrolysis inhibition assay, MMP-3 catalytic domain. The note with it: MES buffer pH 6.0, read-out: MMP-3CD IC50.
Text: as §1, §2, §3
It should be appreciated that the assay buffer used with MMP-3CD was 50 mM N-morpholinoethane sulfonate (“MES”) at pH 6.0 rather than the HEPES buffer at pH 7.0 described above.
as §4, §5

The target in another experiment is T3, MMP-7 full-length (Homo sapiens, UniProt P09237).
T3 construct: MMP-3 catalytic domain, MMP-7 full-length, MMP-8 full-length
T3 sequence (P09237 95-267): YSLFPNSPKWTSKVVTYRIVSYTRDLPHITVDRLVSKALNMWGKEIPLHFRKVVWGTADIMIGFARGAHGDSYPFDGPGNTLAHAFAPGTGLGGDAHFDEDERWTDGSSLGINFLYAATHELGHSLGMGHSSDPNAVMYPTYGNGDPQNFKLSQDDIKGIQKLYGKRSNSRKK
Description: Thiopeptolide substrate hydrolysis inhibition assay, MMP-7 full-length. The note with it: full-length enzyme; read-out: MMP-7FL IC50.
Text: as §1, §2, §3, §4, §5

The target in the next experiment is T4, MMP-8 full-length (Homo sapiens, UniProt P22894).
T4 construct: MMP-7 full-length, MMP-8 full-length, MMP-9 full-length
T4 sequence (P22894 101-467): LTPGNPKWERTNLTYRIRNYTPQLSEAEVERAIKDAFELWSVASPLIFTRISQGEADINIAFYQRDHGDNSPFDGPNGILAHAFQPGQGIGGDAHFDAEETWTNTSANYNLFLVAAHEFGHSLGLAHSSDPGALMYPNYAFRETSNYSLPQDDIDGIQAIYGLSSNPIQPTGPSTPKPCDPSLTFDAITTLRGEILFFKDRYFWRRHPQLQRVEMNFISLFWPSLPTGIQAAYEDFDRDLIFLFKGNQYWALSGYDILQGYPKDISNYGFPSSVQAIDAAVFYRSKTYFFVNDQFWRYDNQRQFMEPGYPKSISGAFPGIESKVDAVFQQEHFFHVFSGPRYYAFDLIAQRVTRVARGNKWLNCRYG
Description: Thiopeptolide substrate hydrolysis inhibition assay, MMP-8 full-length. The note with it: full-length enzyme; read-out: MMP-8FL IC50.
Text: as §1, §2, §3, §4, §5

The target of a further experiment is T5, MMP-9 full-length (Homo sapiens, UniProt P14780).
T5 construct: MMP-8 full-length, MMP-9 full-length, MMP-12 catalytic domain
T5 sequence (P14780 94-707): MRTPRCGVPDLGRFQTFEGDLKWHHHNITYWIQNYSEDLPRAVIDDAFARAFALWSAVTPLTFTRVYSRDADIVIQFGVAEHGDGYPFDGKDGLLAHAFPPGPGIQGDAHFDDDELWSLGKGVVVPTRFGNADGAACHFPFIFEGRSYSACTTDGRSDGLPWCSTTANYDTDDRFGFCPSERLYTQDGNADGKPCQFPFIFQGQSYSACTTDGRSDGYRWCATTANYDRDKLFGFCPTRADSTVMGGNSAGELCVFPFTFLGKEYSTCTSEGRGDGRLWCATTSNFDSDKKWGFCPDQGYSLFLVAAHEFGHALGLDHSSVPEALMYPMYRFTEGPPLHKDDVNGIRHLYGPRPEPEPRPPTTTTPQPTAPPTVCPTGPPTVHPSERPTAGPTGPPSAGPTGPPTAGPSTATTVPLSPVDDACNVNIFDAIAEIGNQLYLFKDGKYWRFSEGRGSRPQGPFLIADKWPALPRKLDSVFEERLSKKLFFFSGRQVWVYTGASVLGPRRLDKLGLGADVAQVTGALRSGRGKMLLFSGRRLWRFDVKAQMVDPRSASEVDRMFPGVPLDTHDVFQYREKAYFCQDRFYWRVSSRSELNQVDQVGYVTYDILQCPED
Description: Thiopeptolide substrate hydrolysis inhibition assay, MMP-9 full-length. The note with it: full-length enzyme; read-out: MMP-9FL IC50.
Text: as §1, §2, §3, §4, §5

The target of the next experiment is T6, MMP-14 catalytic domain (Homo sapiens, UniProt P50281).
T6 construct: MMP-14 catalytic domain, and MMP-17 catalytic domain
Description: Thiopeptolide substrate hydrolysis inhibition assay, MMP-14 catalytic domain. The note with it: read-out: MMP-14CD IC50.
Text: as §1, §2, §3, §4, §5

The next experiment concerns the target T7, MMP-17 catalytic domain (Homo sapiens, UniProt Q9ULZ9).
T7 construct: MMP-14 catalytic domain, and MMP-17 catalytic domain
T7 sequence (Q9ULZ9 126-295 limits assumed): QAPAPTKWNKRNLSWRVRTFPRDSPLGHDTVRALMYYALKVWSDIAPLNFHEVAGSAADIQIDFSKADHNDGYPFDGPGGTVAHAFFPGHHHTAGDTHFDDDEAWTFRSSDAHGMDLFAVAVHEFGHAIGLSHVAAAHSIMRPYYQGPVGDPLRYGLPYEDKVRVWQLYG
The experiment can be described thus: Thiopeptolide substrate hydrolysis inhibition assay, MMP-17 catalytic domain. Particulars: read-out: MMP-17 CD IC50.
Text: as §1, §2, §3, §4, §5

The mark [1] stands for this setting: MMP-13 catalytic domain, read-out: MMP-13CD IC50.

Like-named read-outs stand apart in the source and are kept apart here. A value given as a limit tells only on which side of the number the result lay.

Broadly, the IC50 is the concentration at which inhibition is half-maximal.

In the case of `COc1cccc(CNC(=O)c2cc3c(=O)n(Cc4ccc(C(=O)O)cc4)cnc3cn2)c1` [Compound Example 2, 4-[6-(3-methoxy-benzylcarbamoyl)-4-oxo-4H-pyrido[3,4-d]pyrimidin-3-ylmethyl]-benzoic acid], the IC50 at MMP-13 catalytic domain (setting [1]) was 0.0013 µM; at MMP-1 full-length, over 100 µM; on MMP-3 catalytic domain, 14 µM; at MMP-7 full-length, over 100 µM; on MMP-8 full-length, over 100 µM; on MMP-9 full-length it was over 100 µM. The 50% inhibitory concentration (IC50) on MMP-14 catalytic domain and on MMP-17 catalytic domain was over 100 µM each time.

For `O=C(O)c1ccc(Cn2cnc3cnc(C(=O)NCc4cccnc4)cc3c2=O)cc1` [Compound Example 3, 4-{4-oxo-6-[(pyridin-3-ylmethyl)-carbamoyl]-4H-pyrido[3,4-d]pyrimidin-3-ylmethyl}-benzoic acid], the concentration for half-maximal inhibition (IC50) is 0.032 µM on MMP-13 catalytic domain (setting [1]); over 100 µM at MMP-1 full-length; over 100 µM on MMP-3 catalytic domain; over 100 µM at MMP-7 full-length; over 100 µM on MMP-8 full-length; over 100 µM on MMP-9 full-length. Moreover, the IC50 at MMP-14 catalytic domain and on MMP-17 catalytic domain was over 100 µM in each case.

For the compound `O=C(O)c1ccc(Cn2cnc3cnc(C(=O)NCc4ccc(Cl)cc4)cc3c2=O)cc1` [Compound Example 4, 4-[6-(4-chloro-benzylcarbamoyl)-4-oxo-4H-pyrido [3,4-d]pyrimidin-3-ylmethyl]-benzoic acid], the IC50 at MMP-13 catalytic domain is 0.01 µM; on MMP-1 full-length it was over 100 µM; at MMP-3 catalytic domain it was over 100 µM; on MMP-7 full-length it was over 100 µM; at MMP-9 full-length, over 100 µM; at MMP-14 catalytic domain it was over 100 µM. The half-inhibitory concentration (IC50) on MMP-17 catalytic domain was over 100 µM.

On to `O=C(O)c1ccc(Cn2cnc3cnc(C(=O)NCc4cccc(Cl)c4)cc3c2=O)cc1` [Compound Example 10, 4-[6-(3-chloro-benzylcarbamoyl)-4-oxo-4H-pyrido[3,4-d]pyrimidin-3-ylmethyl]-benzoic acid], for which the concentration for half-maximal inhibition (IC50) was over 100 µM at MMP-1 full-length; 41 µM at MMP-3 catalytic domain; over 100 µM on MMP-7 full-length; over 100 µM on MMP-8 full-length; over 100 µM at MMP-9 full-length; over 100 µM on MMP-14 catalytic domain. For the same compound, the concentration for half-maximal inhibition (IC50) at MMP-17 catalytic domain was over 100 µM.

On to `O=C(O)c1ccc(Cn2cnc3cnc(C(=O)NCc4cccc(F)c4)cc3c2=O)cc1` [Compound Example 11, 4-[6-(3-fluoro-benzylcarbamoyl)-4-oxo-4H-pyrido[3,4-d]pyrimidin-3-ylmethyl]-benzoic acid], for which the IC50 on MMP-13 catalytic domain is 0.017 µM; on MMP-1 full-length, over 100 µM; at MMP-3 catalytic domain, over 100 µM; at MMP-7 full-length, over 100 µM; at MMP-8 full-length it was over 100 µM; on MMP-9 full-length it was over 100 µM. The IC50 on MMP-14 catalytic domain and on MMP-17 catalytic domain was over 100 µM throughout.

On to `O=C(O)c1ccc(Cn2cnc3cnc(C(=O)NCc4ccc(C(F)(F)F)cc4)cc3c2=O)cc1` [Compound Example 12, 4-[4-oxo-6-(4-trifluoromethyl-benzylcarbamoyl)-4H-pyrido[3,4-d]pyrimidin-3-ylmethyl]-benzoic acid], for which the IC50 is 0.097 µM against MMP-13 catalytic domain; over 100 µM at MMP-1 full-length; over 100 µM on MMP-3 catalytic domain; over 100 µM at MMP-7 full-length; over 100 µM on MMP-8 full-length; over 100 µM on MMP-9 full-length. Also, the concentration for half-maximal inhibition (IC50) at MMP-14 catalytic domain and at MMP-17 catalytic domain was over 100 µM throughout.

As to `O=C(O)c1ccc(Cn2cnc3cnc(C(=O)NCc4cccc(C(F)(F)F)c4)cc3c2=O)cc1` [Compound Example 13, 4-[4-oxo-6-(3-trifluoromethyl-benzylcarbamoyl)-4H-pyrido[3,4-d]pyrimidin-3-ylmethyl]-benzoic acid], the IC50 on MMP-13 catalytic domain was 0.0026 µM; on MMP-1 full-length it was over 100 µM; at MMP-3 catalytic domain, 48 µM; at MMP-7 full-length it was over 100 µM; at MMP-9 full-length, over 100 µM; at MMP-14 catalytic domain, over 100 µM. Also, on MMP-17 catalytic domain, the IC50 was over 100 µM.

On to `O=C(O)c1ccc(Cn2cnc3cnc(C(=O)NCc4ccc(F)c(F)c4)cc3c2=O)cc1` [Compound Example 14, 4-[6-(3,4-difluoro-benzylcarbamoyl)-4-oxo-4H-pyrido[3,4-d]pyrimidin-3-ylmethyl]-benzoic acid], for which the IC50 was 0.0053 µM on MMP-13 catalytic domain (setting [1]); over 100 µM at MMP-1 full-length; 42 µM on MMP-3 catalytic domain; over 100 µM at MMP-7 full-length; over 100 µM at MMP-8 full-length; over 100 µM on MMP-9 full-length. Also, the concentration for half-maximal inhibition (IC50) on MMP-14 catalytic domain and at MMP-17 catalytic domain was over 100 µM each time.

As to `COc1cc(CNC(=O)c2cc3c(=O)n(Cc4ccc(C(=O)O)cc4)cnc3cn2)ccc1O` [Compound Example 15, 4-[6-(4-hydroxy-3-methoxy-benzylcarbamoyl)-4-oxo-4H-pyrido[3,4-d]pyrimidin-3-ylmethyl]-benzoic acid], the 50% inhibitory concentration (IC50) was 0.02 µM on MMP-13 catalytic domain (setting [1]); over 100 µM on MMP-1 full-length; over 100 µM on MMP-3 catalytic domain; over 30 µM on MMP-7 full-length; over 100 µM on MMP-8 full-length; over 100 µM on MMP-9 full-length. For the same compound, the figures for the IC50 at MMP-14 catalytic domain and at MMP-17 catalytic domain were over 30 µM and over 100 µM, respectively.
